# Patent US7303740B2, “Methods for the diagnosis and treatment of breast cancer” (Albert Einstein College of Medicine of Yeshiva University, priority 2000, dated 2007)
# How the values were obtained:
# [1] = molecular target: T1, NIS (Rattus norvegicus, UniProt Q63008); format: in vivo
# T1 construct: from tissue; host or cells: living female rats (nubile and lactating): thyroid, stomach, lactating mammary gland
# T1 sequence (Q63008 1-618): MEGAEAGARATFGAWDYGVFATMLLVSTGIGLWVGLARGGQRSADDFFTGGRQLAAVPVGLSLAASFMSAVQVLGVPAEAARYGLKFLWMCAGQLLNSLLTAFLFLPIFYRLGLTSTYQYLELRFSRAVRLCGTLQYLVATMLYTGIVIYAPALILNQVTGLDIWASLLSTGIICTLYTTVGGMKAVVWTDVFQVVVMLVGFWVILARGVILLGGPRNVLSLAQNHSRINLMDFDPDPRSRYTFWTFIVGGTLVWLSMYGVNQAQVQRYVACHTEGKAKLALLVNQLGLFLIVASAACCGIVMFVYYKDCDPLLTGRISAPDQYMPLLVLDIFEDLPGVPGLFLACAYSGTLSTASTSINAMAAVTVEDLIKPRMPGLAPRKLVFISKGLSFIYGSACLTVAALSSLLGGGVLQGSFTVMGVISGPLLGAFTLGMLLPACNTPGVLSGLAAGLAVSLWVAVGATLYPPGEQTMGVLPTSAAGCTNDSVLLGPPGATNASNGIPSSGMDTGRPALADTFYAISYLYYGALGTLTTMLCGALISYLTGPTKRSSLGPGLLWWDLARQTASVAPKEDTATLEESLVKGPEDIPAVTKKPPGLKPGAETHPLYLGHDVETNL
# Procedure: FIG. 1. Characterization of I^− accumulation and NIS expression in rat lactating MG and stomach. (A)-(C) In vivo scintigraphic imaging of ^99mTcO4^− injected adult female rats. (A) Radiotracer (1.5 mCi) was injected into the tail vein of nubile animals, and pin-hole images of the body were obtained at 30 min post-injection. (B) Lactating rats were imaged 5 min after ^99mTcO4^− injection. (C) To ascertain inhibition of ^99mTcO4^− uptake, ^99mTcO4^− and 20 mg perchlorate were co-injected into the tail vein, followed by static imaging at 5 min. (D) Immunoblot analysis. Membrane fractions isolated from rat tissues were electrophoresed, electrotransferred onto nitrocellulose, and immunoblotted with affinity-purified anti-NIS antibody (Ab) and horseradish peroxidase (HRP) linked anti-rabbit IgG (Amersham-Pharmacia, Piscataway, N.J.). Approximately 40 μg of membrane fractions were incubated (either with or without N-glycosidase F) overnight at 37° C., followed by SDS polyacrylamide gel electrophoresis and Western blot analysis. Lanes 1 and 2: thyroid; lanes 4 and 5: lactating MG; lanes 7 and 8: stomach; lane 10: non-lactating MG; lane 11: muscle; and lane 12: lung. […]
# [2] = molecular target: T2, mgNIS (Mus musculus, UniProt Q99PN0); format: in vivo, mice; set-up: Membrane fractions isolated from MG of nubile female mice; from tissue; host or cells: CD1 (ICR) mice (intact, ovariectomized, gestating) and MMTV-ras / MMTV-neu transgenic mice: mammary gland, mammary adenocarcinoma, stomach
# T2 sequence (Q99PN0 1-618): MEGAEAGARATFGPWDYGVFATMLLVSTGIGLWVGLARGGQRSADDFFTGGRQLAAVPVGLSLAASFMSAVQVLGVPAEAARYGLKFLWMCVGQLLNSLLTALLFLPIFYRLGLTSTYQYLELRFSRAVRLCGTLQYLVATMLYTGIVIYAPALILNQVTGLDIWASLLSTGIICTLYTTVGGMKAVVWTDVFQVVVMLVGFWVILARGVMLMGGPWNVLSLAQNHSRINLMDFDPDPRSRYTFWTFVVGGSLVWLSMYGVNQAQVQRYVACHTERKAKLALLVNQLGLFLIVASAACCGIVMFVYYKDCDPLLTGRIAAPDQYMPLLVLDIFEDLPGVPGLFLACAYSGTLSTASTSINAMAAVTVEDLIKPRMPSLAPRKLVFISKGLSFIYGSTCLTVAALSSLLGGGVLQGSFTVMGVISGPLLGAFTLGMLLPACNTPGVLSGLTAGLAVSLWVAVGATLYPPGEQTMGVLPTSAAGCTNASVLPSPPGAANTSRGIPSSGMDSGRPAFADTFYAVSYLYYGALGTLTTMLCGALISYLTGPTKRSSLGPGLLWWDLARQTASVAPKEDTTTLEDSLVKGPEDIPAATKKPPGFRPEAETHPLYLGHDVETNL
# Procedure: Analysis of mammary adenocarcinomas in MMTV-ras and MMTV-neu transgenic mice. (A) Photograph of MMTV-ras transgenic mouse with a mammary adenocarcinoma. Transgenic mice were anaesthetized with intramuscular sodium pentobarbital injections. […] (E) Dynamic curves of percent injected dose per pixel were calculated by drawing regions of interest around tumoral tissue and the mediastinum, and dividing the counts per pixel (average counts) within each region of interest by the initial whole-body count value, thereby yielding a percent injected dose per pixel. (F) Immunoblot analysis of membrane fractions isolated from MMTV-ras tumor with anti-NIS Ab. (I) Immunoblot analysis of membrane fractions isolated from MMTV-neu tumors with anti-NIS Ab. In an MMTV-neu mouse with two adjacent mammary glands containing tumors, each tumor is indicated with an arrow and numbered. Lanes “tu1”, “tu2”, and “mg” correspond to proteins extracted from tumor 1, tumor 2, and contralateral normal mammary gland, respectively.
# To assess whether specific active I^− uptake (a result of mgNIS expression) occurred in the mammary tumoral cells, transgenic animals were imaged in vivo with either ^131I^− or ^99mTcO4^−. […] Quantification of the accumulation of the various tracers in the tumor, as a function of time, is also shown for the ras mouse.
# [3] = molecular target: T3, mgNIS (Homo sapiens, UniProt Q92911); test: 99mTc-pertechnetate scintigraphy of a person with locally-advanced breast cancer; format: in vivo; conditions: whole-body scan, invasive ductal carcinoma
# T3 construct: from tissue; host or cells: person with locally-advanced invasive ductal carcinoma of the breast (whole-body scan)
# T3 sequence (Q92911 1-643): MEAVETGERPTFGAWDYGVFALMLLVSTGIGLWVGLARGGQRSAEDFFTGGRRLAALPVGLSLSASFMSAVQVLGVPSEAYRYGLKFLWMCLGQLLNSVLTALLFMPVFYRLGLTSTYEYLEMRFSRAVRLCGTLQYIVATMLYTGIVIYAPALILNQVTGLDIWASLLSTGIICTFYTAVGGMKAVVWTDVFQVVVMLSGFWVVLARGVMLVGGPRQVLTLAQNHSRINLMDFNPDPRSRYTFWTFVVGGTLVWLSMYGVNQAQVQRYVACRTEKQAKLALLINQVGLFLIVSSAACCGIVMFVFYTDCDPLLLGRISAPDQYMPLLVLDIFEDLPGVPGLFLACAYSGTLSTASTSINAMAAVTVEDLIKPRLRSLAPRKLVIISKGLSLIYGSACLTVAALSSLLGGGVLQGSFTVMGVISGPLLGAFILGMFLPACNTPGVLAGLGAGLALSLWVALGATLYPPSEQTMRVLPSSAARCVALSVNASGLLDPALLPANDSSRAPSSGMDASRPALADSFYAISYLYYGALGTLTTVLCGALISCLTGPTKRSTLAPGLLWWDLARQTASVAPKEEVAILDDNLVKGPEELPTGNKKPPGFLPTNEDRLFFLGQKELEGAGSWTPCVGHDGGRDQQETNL
# Excerpt: FIG. 7. ^99mTc-pertechnetate scintigraphy of a person with a locally-advanced cancer of the right breast and an enlarged thyroid. The patient was scanned after injection of 15 mCi of ^99mTc-labeled pertechnetate (^99mTcO4^−). Tracer accumulates in the thyroid and stomach. Tracer is present in the heart and liver due to vascular pooling. The arrow indicates distinct accumulation in the area of the breast cancer.
# The results obtained from the studies on transgenic mice, and the similarity between the human breast cancer immunohistochemical patterns and those observed in thyroid cancer, indicate the likelihood that mgNIS expressed in human breast tumors is active. Clearly, the most direct way to determine the activity of mgNIS in breast cancer is to subject patients to scintigraphic evaluation with ^99mTcO4^−. One patient who was undergoing neoadjuvant hormonal therapy for locally-advanced breast cancer presented initially with an enlarged thyroid. Accordingly, they underwent whole-body ^99mTcO4^− scanning.
# [4] = molecular target: T2, mgNIS; conditions: mice, 18th day of gestation, subcutaneous injection
# Procedure: Animals at indicated days of gestation (3rd, 11th, or 18th) received a single dose of 1 μCi ^125I^− by subcutaneous injection in 100 μl of PBS. One hour later, MG were surgically removed, and radioactivity was quantified in a γ-counter (LKB 1282 Compugamma, Md.). Obtained values were standardized according to the weight of MG removed from each mouse, and were expressed as the ratio of radioiodide in MG tissue versus blood.
# [5] = molecular target: T2, mgNIS; test: Ex vivo scintigraphic imaging of 99mTcO4- accumulation in organs of oxytocin-treated nubile mice; set-up: Membrane fractions isolated from MG of nubile female mice; from tissue; host or cells: CD1 (ICR) mice (intact, ovariectomized, gestating) and MMTV-ras / MMTV-neu transgenic mice: mammary gland, mammary adenocarcinoma, stomach; conditions: 2 mg perchlorate with tracer
# Procedure: FIG. 3. In vivo effect of oxytocin on functional expression of mgNIS in nubile mice. (A) Radioiodide transport in MG of oxytocin-treated nubile mice. Seven- to eight-week-old female mice were treated subcutaneously with phosphate buffered saline solution (PBS), 10 I.U. of prolactin (PRL), 1 I.U. of oxytocin (OXY), or prolactin and oxytocin (PRL+OXY) for three days. Then, 1 μCi of ^125I^− was injected intraperitoneally. […] (B) Immunoblot analysis of MG from hormonally-treated mice. […] Isolated membrane fractions were electrophoresed, electrotransferred onto nitrocellulose, and analyzed by immunoblots using anti-NIS Ab. […] Perchlorate-inhibited accumulation of ^99mTcO4^− was detected in stomach and MG of OXY-treated animals. (D) Quantification of ^99mTcO4^− accumulation in various organs from OXY- or PBS-treated mice. Tracer accumulation was monitored using image analysis software (ImageQuant, Macintosh). […] Counts were divided by the weight of the organs (cpm/mg tissue), and standardized by dividing them by cpm detected in the blood (cpm/mg blood) of each animal. ^99mTcO4^− accumulation in the organs from: PBS-treated animals (open bars); OXY-treated animals (dotted bars); and OXY-treated animals after ^99mTcO4^−+perchlorate injection (dark bars). […]
# [6] = lactating rats, single intraperitoneal injection
smiles,measurement,setting,value
"[O]=[99Tc](=[O])(=[O])[O-] [^99mTcO4^−, ^99mTc-pertechnetate]",time to concentration of 99mTcO4- in all pairs of MGs,"[1]; lactating rats, tail vein injection",≤ 5 min
same,tracer accumulation in mammary tumor,"[2]; MMTV-ras and MMTV-neu mice, tail vein injection",accumulated in the stomach and tumor
same,tracer distribution in patient with breast tumor,[3],concentrated in the area of this patient's breast tumor
"[125IH] [^125I^−, radioiodide]",125I- concentration in lactating MG,lactating rat,concentrated in lactating MG
same,125I- concentration in milk with respect to blood,[6],> 60 fold
same,time of saturation of 125I- accumulation in milk,[6],~2 h
same,125I- concentration in skeletal muscle or non-lactating MG,"rat, in vivo",not concentrated
same,accumulation of radioiodide in MG compared with blood concentration,[4],15 fold
[O-][Cl+3]([O-])([O-])O [perchlorate],"effect on 99mTcO4- concentration in thyroid, stomach, and lactating MG","[1]; lactating rat, 20 mg perchlorate co-injected, imaging at 5 min",effectively prevented
same,effect on 99mTcO4- accumulation in organs,[5],inhibited
same,effect on 99mTcO4- accumulation in tumor and stomach,[2]; co-injected with the isotope,prevented
